Experimental data published in US8193224B2, “Medicinal composition for prevention or treatment of parasitic protozoan infection” (Fujifilm Corporation, priority 2004, dated 2012).
Read-outs that look alike come from different tables or passages of the source.

Key:
Assay type in all cases: cell-based
[1] = Growth inhibition test of mouse FM3A cells
Experimental: F28-7 strain which is a wild-type of the mouse breast cancer derived FM3A cell was used. As for a medium, immobilized fetal bovine serum was added to a ES medium at 2%, which medium was cultured under CO2 concentration 5%, at 37° C. Doubling time of FM3A cells under that condition was approximately 12 hours. Pre-culture was conducted and cells which have entered the logarithmic growth phase were diluted in a medium to be 5×10^4 cells/mL Those prepared when measuring malarial activity were used as a sample. Sample solution was added in an amount of to 10 μL in a 24-well culture plate (the final concentration was 1×10^−4 to 1×10^−5, by adding media etc). Compounds were taken by duplicates, and wells added with 10 μL DMSO were prepared at the same time as a control. Next, cultured cell suspension previously prepared was added in an amount of 990 to 995 μL, pipetted quietly and suspended in a medium similarly. After culturing 48 hours, the cells were counted with a cell controller (CC-108, Toa. Medical Electrics) for each well. Growth rate was calculated with the following formula, to obtain a 50% growth inhibition rate (EC50). Growth rate (%)={(C−A)/(B−A)}×100 A: primary cell count B: cell count of the control, 2 days after C: cell count of wells added with a sample, 2 days after
Cell growth inhibiting activity was calculated from cell count of wells added with a sample, and cell count of the control.

[2] = system: Plasmodium falciparum FCR-3 strain; test: Drug sensitive-Plasmodium falciparum growth inhibition screening test; details: for EC50: Plasmodium falciparum, FCR3, Erythrocyte, read-out: 50% growth inhibition concentration P. falciparum FCR; for Selective toxicity: chemotherapy index = EC50 mouse FM3A cells / EC50 drug sensitive P. falciparum
Experimental: In the present example, protozoa of Plasmodium falciparum FCR-3 strain was used. RPMI-1640 medium sterilized with a filter was used in the experiment. pH was adjusted to 7.4, and human serum was added to be 10%. Malarial parasites were cultured under 5% O2 concentration, 5% CO2 concentration, 90% N2 concentration, and at a temperature of 36.5° C.
Cultured malarial parasite infected-erythrocytes were collected by centrifugation, and washed in a medium containing serum. Non-infected erythrocytes were added so that the primary infection rate is 0.3%. Hematocrit level at that time was 3%. The compounds of the present invention to be used in the test and the positive target drugs (chloroquine, quinine) were dissolved in dimethylsulfoxide (DMSO) to make a test solution of a predetermined concentration. The test solution was added in an amount of 5 to 10 μl in a 24-well culture plate. To the control, DMSO was added in an amount of 10 μL/well. Test solutions were taken by duplicates. Subsequently, Plasmodium falciparum culture solution previously prepared to a predetermined concentration was added, pipetted quietly, and suspended in the medium similarly. Culture plate was cultured for 72 hours in a CO2—O2—N2(5%, 5%, 90%) incubator. Thin layer smear preparations were prepared for each well, and after performing Diff-Quick staining, the preparations were measured with a microscope (oil immersion, 1,000×), and malarial parasite infection rates of the test solution added-group and of the control group were calculated. Growth inhibition rate was calculated with the following formula from the malarial parasite infection rate obtained in the above, to obtain a 50% growth inhibition concentration (EC50). Growth inhibition rate (%)={1−(b−a)/(c−a)}×100 a: early infection rate b: infection rate when test solution was added c: infection rate of the control

[3] = system: Plasmodium falciparum K1 strain; test: Chloroquine resistant-Plasmodium falciparum growth inhibition screening test
Experimental: In the present example, protozoa of Plasmodium falciparum K1 strain was used. RPMI-1640 medium sterilized with a filter to which human serum was added to be 5%, was used in the experiment. Malarial parasites were cultured under 3% O2 concentration, 4% Co2 concentration, 93% N2 concentration, and at a temperature of 37° C.
The compounds of the present invention to be used in the present test and the positive target drug (chloroquine) were dissolved in DMSO to make a test solution of a predetermined concentration. Cultured malarial parasite infected-erythrocytes were collected by centrifugation, and diluted with non-infected erythrocyte so that the early infection rate is 0.15%. Hematocrit level at that time was 2.5%. 200 μL of malaria infected solution was added to wells of a 96-well culture plate, and adjusted by adding a test solution containing drug of a predetermined concentration or a drug-free DMSO. Test solutions were taken by duplicates. After culturing for 48 hours at 37° C., 0.5 μCi radioactive tritium (3H)-labeled hypoxanthine was added to each well. After further culturing for 24 hours under the same conditions, it was collected on a glass fiber filter and washed with distilled water. Radiation intensity was measured with a beta plate liquid scintillation counter (Wallac), and malarial parasite infection rates of the test solution added group and of the control group were calculated. Growth inhibition rate was calculated with the following formula based on the malarial parasite infection rate obtained in the above, to obtain a 50% growth inhibition concentration (EC50). Growth inhibition rate (%)={1−(b−a)/(c−a)}×100 a: early infection rate b: infection rate when test solution was added c: infection rate of the control

[4] = system: Trypanosoma brucei rhodensiense (STIB 900 strain); test: African trypanosome protozoa growth inhibition screening test; details: Trypanosoma brucei, STIB900; STIB 900 strain, blood stream form, 72 hours, Alamar Blue; read-out: 50% growth inhibiting concentration Trypanosoma brucei rhod.
Experimental: In the present example, protozoa of Trypanosoma brucei rhodensiense (STIB 900 strain), a trypamastigote living in blood stream, was used. The medium used in the experiment was a MEM medium which was sterilized with a filter and supplemented with 25 mM N-2-hydroxyethylpiperazine-2-ethansulfonic acid […]), 1 g/L glucose, 1% MEM non-essential amino acid, 0.2 mM 2-mercaptoethanol, 2 mM sodium pyruvate, 0.1 mM hypoxanthine, and 15% heat-treated horse serum. The protozoa was cultured in an atmosphere of CO2 concentration 5%, at a temperature of 37° C.
The compounds of the present invention to be used in the present test and the positive target drug (melarsoprol) were dissolved in DMSO to make a test solution of a predetermined concentration. A medium containing 8×10^3 protozoa, and a test solution containing a drug of a predetermined concentration or a drug-free DMSO were added to wells of a 96-well culture plate, and subsequently, medium was added so that the amount in each well becomes 100 μL. Test solutions were taken by duplicates. After culturing the culture plate for 72 hours in an incubator, growth inhibition activity was tested. Test was conducted as follows. 10 μL of Alamar Blue aqueous solution was added to each well, and the resultant was further cultured for 2 hours. Next, the culture plate was placed on a fluorescent micro-plate reader (Spectramax Gemeni XS; US Molecular Device), radiated at an excited wavelength of 536 nm. Fluorescent intensity was measured at 588 nm, to calculate the trypanosome protozoa infected rate of the test solution added-group, and of the control group. From the protozoan infection rate obtained in the above, growth inhibition rate was calculated with the following formula, to obtain a 50% growth inhibition concentration (EC50). Growth inhibition rate (%)={1−(b−a)/(c−a)}×100 a: early infection rate b: infection rate when test solution was added c: infection rate of the control

[5] = system: Trypanosoma brucei rhodensiense (STIB 900 strain); test: as above; details: chemotherapy index = EC50 rat L6 cells / EC50 African trypanosome protozoa
[6] = system: Leishmania donovani (MHOM/ET/67/L82 strain); test: Leishmania protozoa growth inhibition screening test; details: Leishmania donovani; MHOM/ET/67/L82 strain amastigote, pH 5.4, 72 hours, Alamar Blue; read-out: 50% growth inhibition concentration Leishmania donovani
Experimental: In the present example, Leishmania donovani (MHOM/ET/67/L82 strain) was used. Protozoa was subcultured in Syrian Golden hamster, from which an amastigote was obtained. In the experiment, SM medium supplemented with 10% heat-treated bovine fetal serum was used, which was adjusted to pH 5.4, and cultured in an atmosphere of 5% CO2 concentration, at 37° C.
The compounds of the present invention to be used in the present test and the positive target drug (miltefosine) were dissolved in DMSO to make a test solution of a predetermined concentration. After adding a medium containing a predetermined number of protozoa to wells of a 96-well culture plate and pre-treating, concentration of the amastigote was measured with CASY cell analysis system (Scharfe, Germany). Then, test solution containing a drug of a predetermined concentration or a drug-free DMSO was added. Test solutions were taken by duplicates. After culturing the culture plate for 72 hours in an incubator, growth inhibition activity was tested. Test was conducted as follows.
10 μL of Alamar Blue aqueous solution was added to each well, and the resultant was further cultured for 2 hours. Next, the culture plate was placed on a fluorescent micro-plate reader (Spectramax Gemeni XS; US Molecular Device), radiated at an excited wavelength of 536 nm. Fluorescent intensity was measured at 588 nm, and infection rate of leishmania protozoa of the test solution added-group and control was calculated, to obtain a 50% growth inhibition concentration (EC50). Growth inhibition rate (%)={1−(b−a)/(c−a)}×100 a: early infection rate b: infection rate when test solution was added c: infection rate of the control

[7] = system: Leishmania donovani (MHOM/ET/67/L82 strain); test: as above; details: chemotherapy index = EC50 rat L6 cells / EC50 leishmania protozoa
[8] = Growth inhibition test of rat L6 cells; details: L6 cells (rat skeletal myoblast)
Experimental: Rat derived-L6 cells (rat skeletal myoblast cell) were used. As medium, RPMI1640 medium was supplemented so that L-glutamin (200 mM) is 1%, and fetal bovine serum 10%, and the medium was cultured under CO2 concentration 5%, at 37° C. The compounds of the present invention and the target drugs to be used in the test were dissolved in DMSO, to make a test solution of a predetermined concentration. Pre-culture was conducted and medium containing cells which have entered the logarithmic growth phase was taken to wells of a 96-well culture plate. Then, a test solution containing drug of a predetermined concentration or a drug-free DMSO was added. Test solutions were taken by duplicates. Culture plate was cultured for 72 hours in an incubator, to test the growth inhibition activity. Test was conducted as follows.
10 μl of Alamar Blue aqueous solution was added to each well, and the resultant was further cultured for 2 hours. Next, the culture plate was placed on a fluorescent micro-plate reader (Spectramax Gemeni XS; US Molecular Device), radiated at an excited wavelength of 536 nm. Fluorescent intensity was measured at 588 nm, and residual rate of L6 cells of the test solution added group, and that of the control was calculated. Based on the cell residual rate obtained in the above, growth inhibition rate to L6 cells was calculated, to obtain a 50% growth inhibition concentration (EC50). Growth inhibition rate (%)={(C−A)/(B−A)}×100 A: primary cell count B: cell count of control, 3 days after C: cell count of wells added with a sample, 3 days after […]

[9] = system: Trypanosoma cruzi (Tulahuen C2C4 strain); test: American trypanosome protozoa growth inhibition screening test
Experimental: In the present example, amastigote and trypomastigote infected with rat L6 cells of protozoa of Trypanosoma cruzi (Tulahuen C2C4 strain) were used. As medium used in the test, RPMI 1640 medium containing L6 cells was supplemented so that L-glutamine (200 mM) becomes 1%, fetal bovine serum becomes 10%, which was cultured under CO2 concentration 5%, at 37° C.
The compounds of the present invention to be used in the test and the positive target agent (benznidazole) were dissolved in DMSO to make a test solution of a predetermined concentration. A medium containing 5×10^3 protozoa was added to wells of a 96-well culture plate, and pre-cultured for 48 hours. After replacing the medium, test solution containing drug of a predetermined concentration or a drug-free DMSO was added. Test solutions were taken by duplicates. After culturing the culture plate in an incubator for 96 hours, growth inhibition activity was tested. Test was conducted as follows.
50 μL of CPRG/Nonidet was added to each well, and allowed to rest for 2 to 6 hours. Next, the culture plate was placed on a fluorescent micro-plate reader, and the absorbance was measured at 540 nm. Growth inhibition rate was calculated with the following formula based on the protozoan infection rate which was obtained by calculating trypanosome infection rate of the test solution added group and control group, to obtain a 50% growth inhibition concentration (EC50). Growth inhibition rate (%)={1−(b−a)/(c−a)}×100 a: early infection rate b: infection rate when test solution was added c: infection rate of the control

[10] = drug sensitive FCR-3 strain, infected erythrocytes, cultured 72 hours, microscopy

## CCN(CC)CCCC(C)Nc1ccnc2cc(Cl)ccc12 (centres unmarked) [chloroquine, reference compound]
[1]; mouse FM3A cells, 48 hours, cell count (Table 1), read-out: 50% growth inhibition concentration Cytotoxicity FM3A
  EC50 at 48 h: 32000 nM
[2]; 72 h
  EC50: 18 nM
[2]
  Selective toxicity: 1780

## CCn1c(=O)/c(=C/C=C2\Sc3ccc4ccccc4c3N2C)s/c1=C\c1scc(C)[n+]1CC [A-3]
[1]; mouse
  EC50 at 48 h: 1500 nM
[2]; [10]
  EC50: 75 nM
[2]
  Selective toxicity: 20

## CCN1CCS/C1=C\C=c1/s/c(=C\c2sc3c4ccccc4ccc3[n+]2CCO)n(CC)c1=O [A-17]
[3]; Plasmodium falciparum, 72 h, chloroquine resistant K1 strain, 3H-hypoxanthine, 48 + 24 hours, read-out: 50% growth inhibition concentration P. falciparum K1
  EC50: 38 nM
[3]; chemotherapy index = EC50 rat L6 cells / EC50 chloroquine resistant P. falciparum
  Selective toxicity: 1400
[4]
  EC50: 93 nM
[5]
  Selective toxicity: 570
[6]
  EC50: 11 nM
[7]
  Selective toxicity: 4800
[8]; Alamar Blue (Table 2), read-out: 50% growth inhibition concentration Cytotoxicity L6
  EC50 at 72 h: 53000 nM

## CCn1c(=O)/c(=C/C=C2\Sc3ccc4ccccc4c3N2C)s/c1=C\c1sc2ccc3ccccc3c2[n+]1CC [A-2]
[1]; mouse
  EC50 at 48 h: 800 nM
[2]; [10]
  EC50: 100 nM
[2]
  Selective toxicity: 8

## C=C[C@H]1C[N@@]2CC[C@H]1C[C@H]2[C@H](O)c1ccnc2ccc(OC)cc12 [quinine, reference compound]
[1]; mouse
  EC50 at 48 h: 100000 nM
[2]; [10]
  EC50: 110 nM
[2]
  Selective toxicity: 910

## CCN1C=CC=C/C1=C\C=c1/s/c(=C\c2cc[n+](CC)c3ccccc23)n(CC)c1=O [A-11]
[1]; mouse
  EC50 at 48 h: > 14000 nM
[2]; [10]
  EC50: 600 nM
[2]
  Selective toxicity: >23

## CCC[n+]1c(/C=c2\s/c(=C\C=C3/SCCN3CC)c(=O)n2CC)sc2c3ccccc3ccc21 [A-16]
[9]; Trypanosoma cruzi, Tulahuen C2C4 strain in rat L6 cells, 96 hours, CPRG/Nonidet, read-out: 50% growth inhibition concentration Trypanosoma cruzi
  EC50: 90 nM
[9]; chemotherapy index = EC50 rat L6 cells / EC50 American trypanosome protozoa
  Selective toxicity: 10
[4]
  EC50: 30 nM
[5]
  Selective toxicity: 31
[6]
  EC50: 8 nM
[7]
  Selective toxicity: 120
[8]; Alamar Blue (Table 3), read-out: 50% growth inhibiting concentration Cytotoxicity L6
  EC50 at 72 h: 940 nM
